# Assays:
# Type in all cases: cell-based
# NG108-15 cells = test: Neurite crossing of laminin/aggrecan (CSPG) boundary after protein transduction; conditions: for neurite extension across laminin/CSPG boundary: vs controls
# Excerpt: We developed a second model to observe the effects of substrate-bound GAGs or CSPGs on neurite extension. Briefly, alternating lanes of the CSPG aggrecan and laminin were created on 60 mm diameter tissue culture dishes using a modified version of the Bonhoeffer method. Thus, neurite extension of cells across laminin/CSPG boundaries could be observed in these coated tissue culture dishes. Such laminin/CSPG coated dishes were used for the experiments summarized in the following examples and in FIGS. 7-10.
# NG108-15 cells (available from ATCC, Manassas, Va.) were removed from culture flasks and resuspended in Neurobasal-A media (Invitrogen, Carlsbad, Calif.) supplemented with N-2, L-glutamine, and 1% penicillin/streptomycin. 2×10^4 NG108-15 cells were added to a laminin/CSPG coated dish as described in Example 8. After approximately 4 hours, the cells formed lanes adhering to the laminin lanes. The ability of the cells to migrate and/or extend processes across the laminin/CSPG boundary was then assessed following transduction of the cells with control proteins, with various Class I activator proteins, or with a Class 2 inhibitor protein.
# Cells were transduced using the CHARIOT protein transduction system with any one of the following: GST control alone, activated Cdc42-GST, dominant negative Cdc42-GST, activated Rac1-GST, dominant negative Rac1-GST, activated RhoA-GST, or the RhoA inhibitor C3 transferase (Cytoskeleton, Denver, Colo.). The activated and dominant negative variants used for these experiments were as following: activated Cdc42=Q61L Cdc42, dominant negative Cdc42=T17N Cdc42, activated Rac1=Q61L Rac1, dominant negative Rac1=T17N […], activated RhoA=Q63 L RhoA. Following protein transduction, cells were placed in humidified incubators at 37° C., and 5% CO2 and were […] after 48 hours.
# NG108 cells = test: Two dimensional coverslip with alternating stripes of chondroitin sulfate, crossing of short axis; conditions: protein delivered with Chariot protein transduction system; unmodified cells less than 10%; FIG. 5A
# Excerpt: We developed a two-dimensional model to observe the effects of substrate-bound GAGs or CSPGs on neurite extension. Briefly, the surfaces of glass coverslips were modified using 3-aminopropyltriethoxysilane, which binds amines to the surface. Through a two-step covalent coupling procedure, chondroitin sulfate C(CS-C) was crosslinked to the amines on the surface of the coverslip. First, CS-C was linked to EDAC, a zero-length crosslinker, that reacts with amine groups. With the aid of the Bonhoeffer matrix the CS-C-EDAC solution was passed into the microchannels incubated at room temperature for 30 minutes and removed. This process was repeated three additional times with fresh CS-C-EDAC solution. The CS-C covalently couple to the amines on the modified coverslip via the EDAC.
# The coverslips were sonicated for 5 minutes to remove any CS-C that was not covalently bound to the coverslip. The coverslips were sterilized in 70% ethanol, and 15,000 cells were seeded on top of the micropatterned area and incubated at 37° C., 5% CO2. The behavior of the seeded cells can now be examined in the presence or absence of agents which either influence the cells themselves (e.g., Class I activators, Class II inhibitors, etc.) or agents which alter the CS-C. […]
# E9 chick DRG = test: Three-dimensional layered agarose gel, neurite crossing of gel interfaces; conditions: for percentage of DRG neurites that cross the interface between 2 layers: interface of 1% agarose and 2% agarose modified with chondroitin sulfate, compared to non-GAG agarose interface, FIG. 3
# Excerpt: This three-dimensional system allows observation of neuronal cell behavior at gel interfaces. In this example, layer 1 is a control interface composed of 1% agarose, layer 2 contains the neuronal explant, in this case an explant of dorsal root ganglia (DRG) in 1% agarose, and layer 3 is 2% agarose containing chondroitin sulfate-B. The layer 1/layer 2 interface provides a control agarose/agarose interface, while the layer 2/layer 3 interface provides an agarose/CS-GAG rich agarose interface. The ability of neurites to cross the interface between layer 2/layer 3 can be measured.
# Agarose gels were made by dissolving SeaPrep agarose (FMC Corp) in pH 7.4 PBS. Agarose solutions were sterilized by p assing through a 0.45 u m filter, gelled and stored at 4° C. Prior to use, the gels were degelled at 65° C., cooled to 37° C., and gelled.
# For construction of three dimensional system, agarose gels were layered in a rectangular culture dish. 1% liquid agarose was poured into the dish, and chilled to allow layer 1 to gel. After layer 1 had gelled, liquid agarose containing several E9 chick DRG were poured onto layer 1, and chilled to form layer 2. After layer 2 had gelled, 2% liquid agarose containing chondroitin sulfate-B was poured onto layer 2 and chilled to form layer 3.
# To maintain the cells in this culture system, culture medium consisting of DMEM supplemented with 10% fetal bovine serum, 1% penicillin-streptomycin, and 50 ng/mL nerve growth factor was added to the top of the gel.
# The ability of neuronal cells to extend processes across the interfaces was quantified by determining the percentage of neurites that successfully crossed the interface using light microscopy.
# [1] = Chariot transduction, imaged after 48 hours, vs untransduced or GST alone, FIG. 7
substance,measurement,setting,value
"activated RhoA: Q63L RhoA constitutively active Rho family GTPase variant, GST protein",percentage of neurites that cross a laminin/aggrecan boundary,NG108-15 cells; [1],did not significantly promote
"constitutively active Cdc42: Q61L mutation of human Cdc42 (SEQ ID NO: 2), constitutively active Rho family GTPase protein, delivered by Chariot protein transduction",percentage of NG108 cells that cross the short axis of chondroitin sulfate GAG coverslip,NG108 cells,approximately 50%
same,percentage of neurites that cross a laminin/aggrecan boundary,"NG108-15 cells; 4 μg/mL, Chariot transduction, vs untransduced cells, FIG. 8",statistically significant increase
same,dose dependence of neurite extension across laminin/CSPG boundary,"NG108-15 cells; 1, 2, 3, 4 μg/mL, Chariot transduction, FIG. 8",dose dependent increase
same,percentage of neurites that cross a laminin/aggrecan boundary,NG108-15 cells; [1],statistically significant increase
chondroitin-sulfate B,percentage of DRG neurites that cross the interface between 2 layers,E9 chick DRG,statistically significant decrease
same,percentage of DRG neurites that cross the interface between 2 layers,E9 chick DRG; listed as CS-GAG,significantly inhibited
same,extension of neuronal processes at the layer 2/layer 3 interface,"E9 chick DRG; layer 3 is 2% agarose modified with chondroitin sulfate B, FIG. 2C",inhibited
C3 transferase,neurite extension across laminin/CSPG boundary,"NG108-15 cells; 2 μg/mL, FIG. 10",statistically significant
same,neurite extension across laminin/CSPG boundary,"NG108-15 cells; 4 μg/mL, FIG. 10",statistically significant
same,percentage of neurites that cross a laminin/aggrecan boundary,NG108-15 cells; [1],statistically significant increase
same,dose dependence of neurite crossing of laminin/aggrecan boundary,"NG108-15 cells; various concentrations, in the presence of Chariot, FIG. 10",statistically significant and dose dependent increase
"dominant negative Cdc42: T17N Cdc42 dominant negative Rho family GTPase variant, GST protein",percentage of neurites that cross a laminin/aggrecan boundary,NG108-15 cells; [1],did not significantly promote

# Reference: US7749496B2, “Neuronal regeneration” (Case Western Reserve University, priority 2001, dated 2010)
